Patent US20240287042A1, “NOVEL COMPOUND HAVING INHIBITORY ACTIVITY AGAINST PENDRIN, AND PHARMACEUTICAL USES THEREOF” (UIF (University Industry Foundation), Yonsei University, priority 2021, published 2024)

Key:
[1] = tested on: human nasal epithelial cells (HNE); test: Volume of airway surface liquid (ASL) in IL-4-treated differentiated human nasal epithelial cells; format: cell-based; conditions: 30 μM, IL-4 10 ng/ml, 48 hours
Experimental: For differentiation of primary cultures of human nasal epithelial cells, cells were cultured in Transwell (Transwell, Costar Co., Cambridge, MA) with 0.45 µm pores at a density of 2×10^5 cells/cm^2. Cells were cultured in a 1:1 mixed culture medium of Dulbecco's modified Eagle's medium (Lonza) and bronchial epithelial growth medium (Lonza) supplemented with the following growth factors, while changing the medium every 2 to 3 days. The cells were cultured in a precipitated state in the culture medium for the first 7 days, and during the subsequent culture period, and cultured by exposing the upper part of transwell to air. After establishment of the air-liquid interface (ALI), cells were cultured and differentiated for 21 days. At all stages of culture, the cell culture medium was maintained at 5% CO2 and 37° C.
Vehicle, IL-4 (10 ng/ml), and YPI-H05 (30 μM) were added to the basal fluid of transwell in which differentiated NHE cells expressing normal pendrin were growing, and cultured at 37° C. under 5% CO2 in an incubator for 48 hours. After cultured, a round filter paper with a diameter of 10 mm was placed in the lumen side of the transwell and left for 10 seconds to absorb moisture from the airway surface liquid. Changes in the volume of airway surface liquid were measured through increased filter paper weight using a precision electronic balance.

[2] = tested on: LPS-induced acute lung injury model; test: LPS-induced acute lung injury model, i.p. pre- and post-treatment; format: in vivo, C57BL/6N mice; conditions: vs vehicle-treated LPS mice
Experimental: Wild-type male C57BL/6N mice aged 8 to 10 weeks and weighing 20-24 g were purchased from Orient Bio (Seongnam, South Korea). […] Specifically, LPS (Escherichia coli, 0111: B4, Sigma) (10 μg/g) dissolved in 50 μL PBS was administered by intranasal (i.n.) inhalation. The control group received 50 μL of sterile PBS through intranasal administration. For pretreatment, YPI-A4948 dissolved in 50 μL DMSO was administered intraperitoneally (i.p) at 0.1 mg/kg, 1.0 mg/kg and 10 mg/kg, respectively, 1 hour before LPS inhalation, and for post-treatment, YPI-A4948 was administered at 0.1 mg/kg, 1.0 mg/kg, and 10 mg/kg, respectively, 12 hours after LPS inhalation. The vehicle control group was intraperitoneally administered with 50 μL DMSO at the same time point as pretreatment and post-treatment. Mice were euthanized 48 hours after LPS inhalation to remove the lungs. In addition, BALF cytospin staining and H&E lung tissue staining were performed to observe the degree of lung injury.

C57BL/6N mice = test: Diuretic effect in mice (urine volume); format: in vivo; conditions: i.p. twice at 3 h interval, urine volume after 6 hours, alone
Experimental: Wild-type male C57BL/6N mice aged 8 weeks and weighing 20-24 g were purchased from Orient Bio (Seongnam, South Korea). Before the experiment, water and diet were restricted, and the bladder was stimulated to induce urine. A 100 mg/ml stock concentration of YPI-A4948 dissolved in DMSO was prepared to have final concentrations of 0.001 mg/kg/100 ul, 0.005 mg/kg/100 ul and […] mg/kg/100 ul, 0.1 mg/kg/100 ul, 0.5 mg/kg/100 ul and 1 mg/kg/100 ul (1% DMSO+DW), respectively, and injected intraperitoneally twice with an interval of 3 hours. After 6 hours, the urine volume of each group of mice was measured.

SLC26A6 = target: T1, SLC26A6 (Homo sapiens, UniProt Q9BXS9); test: SLC26A6 activity, YFP fluorescence in LN-215 cells; format: cell-based; conditions: FIG. 16
T1 construct: expressed in transfected cells
T1 sequence (Q9BXS9 1-759): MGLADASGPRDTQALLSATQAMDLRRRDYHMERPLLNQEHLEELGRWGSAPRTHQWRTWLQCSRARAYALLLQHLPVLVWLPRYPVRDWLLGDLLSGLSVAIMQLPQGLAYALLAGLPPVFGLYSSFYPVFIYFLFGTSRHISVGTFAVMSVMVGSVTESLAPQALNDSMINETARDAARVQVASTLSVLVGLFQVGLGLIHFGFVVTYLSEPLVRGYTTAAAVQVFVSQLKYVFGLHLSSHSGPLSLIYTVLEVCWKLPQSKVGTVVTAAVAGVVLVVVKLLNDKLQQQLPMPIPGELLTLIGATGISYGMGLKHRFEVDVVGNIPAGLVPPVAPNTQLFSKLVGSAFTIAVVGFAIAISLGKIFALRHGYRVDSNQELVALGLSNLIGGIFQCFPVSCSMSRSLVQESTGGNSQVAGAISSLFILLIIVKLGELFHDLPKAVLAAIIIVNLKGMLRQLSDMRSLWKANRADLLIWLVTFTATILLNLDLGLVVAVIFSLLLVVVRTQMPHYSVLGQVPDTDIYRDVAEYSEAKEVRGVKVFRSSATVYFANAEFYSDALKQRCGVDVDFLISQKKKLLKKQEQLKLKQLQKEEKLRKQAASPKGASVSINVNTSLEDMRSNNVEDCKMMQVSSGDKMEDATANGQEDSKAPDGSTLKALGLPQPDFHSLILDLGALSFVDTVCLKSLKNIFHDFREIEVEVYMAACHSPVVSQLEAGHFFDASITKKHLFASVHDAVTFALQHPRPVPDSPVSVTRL
Experimental: In the case of SLC26A3 and SLC26A6, each transporter protein and halide sensitive YFP were expressed in LN-215 cells to measure the activity of the transporter protein.
Other details were carried out in the same manner as Example 5.

[3] = tested on: Adriamycin-induced heart failure mouse model; test: Diuretic effect in Adriamycin-induced heart failure mouse model; format: in vivo, C57BL/6N mice; conditions: heart failure mice
Experimental: Wild-type male C57BL/6N mice aged 8 weeks and weighing 20-24 g were purchased from Orient Bio (Seongnam, South Korea). Cardiac ultrasound imaging was performed before administration of Adriamycin. […] Five weeks later, cardiac ultrasound imaging was performed to confirm whether heart failure had been induced.
A 100 mg/ml stock concentration of YPI-A4948 dissolved in DMSO was prepared to have final concentrations of 0.1 mg/kg/100 ul, 0.5 mg/kg/100 ul and 1 mg/kg/100 ul (1% DMSO+DW), respectively. Heart failure mice were placed in mouse metabolic cages, and water and food were restricted. Before administering YPI-A4948, the bladder of the mouse was stimulated, and YPI-A4948 was injected intraperitoneally alone for two times in total, once every 3 hours for 6 hours. In other groups, it was administered with furosemide at 0.5 mg/kg and 1 mg/kg, respectively, in order to confirm the co-administration effect with other diuretics. Urine was collected from each group of mice after 6 hours.

[4] = i.p. 0.1, 1.0, 10 mg/kg 1 h before and 12 h after LPS

Effect on activity of SLC26A6 (SLC26A6) | Compound | Volume of airway surface liquid (ASL) reduced by IL-4 [1] | BALF protein concentration [2, 4] | BALF total cell counts [2, 4] | Lung injury (BALF cytospin and H&E lung tissue staining) ([2]; i.p. before and after LPS) | Dose from which a diuretic effect is exhibited (C57BL/6N mice) [mg/kg] | Diuretic effect, co-administered with furosemide ([3]; 0.5 mg/kg YPI-A4948 and 1.0 mg/kg furosemide) | Diuretic effect, administered alone ([3]; 1 mg/kg i.p. twice in 6 hours)
– | Cc1ccc(C)c(N2CCN(C(=O)Cc3c(C(=O)O)[nH]c4ccc(Cl)cc34)CC2)c1 [YPI-H05, 5-chloro-3-(2-(4-(2,5-dimethylphenyl)piperazin-1-yl-)-2-oxoethyl)-1H-indole-2-carboxylic acid] | significantly increased | – | – | – | – | – | –
did not inhibit | Cc1ccc2[nH]c(C(=O)O)c(CC(=O)N3CCN(c4c(C)cccc4Cl)CC3)c2c1 [YPI-A4948, 3-(2-(4-(2-Chloro-6-methylphenyl)piperazin-1-yl)-2-oxoethyl)-5-methyl-1H-indole-2-carboxylic acid] | – | significantly reduced | significantly reduced | significantly reduced | ≥ 0.01 | additive effect | showed a diuretic effect
